One series can be described thus: in vivo. As to conditions: male, Balb c nu/nu, mouse, iv, total radioactivity. The method, then:
(§1) Healthy or xenografted Balb c nu/nu male mice (Janvier) were used in this study. To obtain xenografted mice, animals were injected subcutaneously in the right shoulder with PC-3, 3 × 10^6 cells in Matrigel (total volume 150 μl, solution 66 % RPMI, 33 % Matrigel) per animal. Prior to tumor cell inoculation, the PC-3 cells were cultured in RPMI medium supplemented with 10 % fetal bovine serum, 5000 IU/ml penicillin, and 5000 μg/ml streptomycin at 37 °C in a humidified atmosphere containing 5 % CO2. PC295 is an androgen-dependent, patient-derived cell line with high GRPR expression. Xenografts were generated by subcutaneous implantation of the PC295 human prostate tumor as previously described and were stored at − 80 °C until further use. All culture supplies were purchased at Gibco.
(§2) Tumor-bearing mice received an intravenous injection of 200 pmol/2.5 MBq [^111In]SB3, co-injected with either 300 μg/100 μl PA in 0.5 % ethanol or 100 μl saline solution (n = 4 animals per group for each time point). […] To determine specificity of tumor and organ uptake, blocking experiments were performed; an additional group of animals (n = 3) was pre-injected with an excess (20 nmol) of unlabeled SB3 followed by injection of the radiotracer −/+ PA. At three different time points p.i. (1, 4, and 24 h), animals were euthanized and blood, organs, and tumors were collected, weighed, and measured in a γ-counter (1480 WIZARD automatic γ-counter, PerkinElmer). For γ-counter measurements, an isotope specific energy window, a counting time of 60 s, and a counting error ≤ 5 % were used. Results were expressed as the percentage of the injected dose per gram tissue (% ID/g tissue). Animals that had ≥ 7 % ID in the tail were excluded.
(§3) All statistical evaluations were performed with GraphPad Prism software (version 5.01). The IC50 value was calculated using a log (inhibitor) vs response model. To compare in vivo stability −/+ PA, radioactivity uptake in the tumor −/+ PA and radioactivity uptake in the tumor without and with an excess of unlabeled peptide an unpaired t test was used. P values < 0.05 were considered statistically significant. Tumor to organ uptake ratios were calculated per animal and expressed as mean and standard deviation per group.

Series [1] concerns PC-3 tumor xenografts (GRPR-expressing). Put plainly: in vivo. The note with it: mouse. Here is the method:
as §1, §2, §3

Series [2] shares this test system. As to conditions: 1 h p.i.; for tumor ROI signal intensity on SPECT: 25 MBq/200 pmol i.v. The method, then:
For SPECT/MRI, PC-3-xenografted mice were intravenously injected with 25 MBq/200 pmol [^111In]SB3, co-injected with either 300 μg/100 μl PA in 0.5 % ethanol or 100 μl saline solution. Subsequently, imaging was performed 1, 4, and 24 h p.i. of the radiotracer, while animals were anesthetized using isoflurane/O2, body temperature was maintained using warm air flow, and respiratory rate was monitored. Whole-body SPECT images were acquired using the novel and state-of-the-art four-head multipinhole system (NanoScan SPECT/MRI, Mediso Medical Imaging) in 30 min (28 projections, 29 s/projection, and 7-cm axial field of view). Images were reconstructed using OSEM with six iterations and four subsets on a 120 × 120 matrix with 0.25 × 0.25 × 0.25-mm isotropic voxels. MR-based attenuation correction was applied to all images. T2 MR images were acquired using a spin echo sequence (TR/TE = 4500/52 ms) with a 35-mm-diameter solenoid coil. Other scan parameters were field of view 70 mm, matrix 256 × 128, and slice thickness 1 mm with 0.1-mm spacing between slices. An ROI of the tumor was drawn by an experienced technician on the T2-weighted MR image to measure the intensity in the SPECT image.

The conditions of series [3]: healthy mice, blood 5 min p.i., radio-HPLC, mean ± SD; for intact radiotracer, % of remaining circulating activity in blood: 200 pmol/25 MBq i.v.; for intact radiotracer in blood: 2000 pmol/25 MBq i.v. Here is the method: To determine the stability of [^111In]SB3 −/+ PA in vivo, healthy mice (n = 3 per group) were intravenously injected with 200 pmol/25 MBq or 2000 pmol/25 MBq [^111In]SB3 (volume 100 μl), co-injected with either 300 μg/100 μl PA (Peptides International Inc.) in 0.5 % ethanol or 100 μl saline solution. Five minutes after injection of [^111In]SB3 −/+ PA, blood (0.5–1 ml) was collected by cardiac puncture, while animals were under isoflurane/O2 anesthesia, and transferred to blood-collection tubes containing 90 USP units of lithium heparin (spray coated), HPLC grade ethanol was added in a 1:1 (v/v) ratio, and the tubes were placed on ice. Blood samples were centrifuged 5 min at 1250g, and supernatant was collected. Next, the collected supernatant was centrifuged again for 5 min at 12,500g. The secondary supernatant was collected and diluted with MilliQ down to < 25 % ethanol before injection on HPLC. The samples were analyzed by HPLC (Alliance, Waters) including a Symmetry C18 column (5 μm × 4.6 mm × 250 mm). Elution was performed in a 1-ml/min flow, completed in 30 min, with the gradient 0–5 min 100 % A, 5–5.01 min 40 % A 60 % B, 5.01–20 min 20 % A 80 % B, 20–20.01 min 100 % B, 20.01–25 min 100 % B, and 25.01–30 min 100 % A, where A was 0.1 % TFA in H2O and B was methanol.

For series [4] the following is noted: Indium-111 labeled; cited from earlier work. An excerpt: Preclinical as well as clinical PET imaging studies using [^68Ga]SB3 have been performed with great success. […] To increase the in vivo stability of radiopeptides, multiple solutions are available, including structural modifications of a peptide or the novel approach of inhibition of enzymes responsible for enzymatic degradation. Since structural modifications are time consuming, and ...

For series [5] the following is noted: pre-clinical studies of PA combined with radiotracers; cited from earlier work. From the text:
For application in patients, NEP inhibitors that are already approved for clinical use such as Sacubitril and Racecadotril might be applied.

The target of a further series is human GRPR (Homo sapiens, UniProt P30550). In words: biochemical. Here is the method: as §3
[6] abbreviates: co-injected with 300 μg PA, n = 3.

Read-outs that look alike come from different tables or passages of the source.

human GRPR, sequence (P30550 whole entry): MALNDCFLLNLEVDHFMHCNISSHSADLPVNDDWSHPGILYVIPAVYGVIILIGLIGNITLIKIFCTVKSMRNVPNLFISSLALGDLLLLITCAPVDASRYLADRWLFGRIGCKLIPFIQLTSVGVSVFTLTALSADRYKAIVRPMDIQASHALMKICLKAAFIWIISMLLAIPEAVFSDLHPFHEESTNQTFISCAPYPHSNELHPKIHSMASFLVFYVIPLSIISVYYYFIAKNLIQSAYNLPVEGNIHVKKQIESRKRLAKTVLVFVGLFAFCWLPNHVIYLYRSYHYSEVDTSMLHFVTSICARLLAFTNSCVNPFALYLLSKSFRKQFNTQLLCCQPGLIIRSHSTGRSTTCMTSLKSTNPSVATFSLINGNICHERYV

The tissue uptake is the percentage of the injected dose found per gram of tissue. Turning to `CCNC(=O)[C@H](CC(C)C)NC(=O)[C@H](Cc1c[nH]cn1)NC(=O)CNC(=O)[C@@H](NC(=O)[C@H](C)NC(=O)[C@H](Cc1c[nH]c2ccccc12)NC(=O)[C@H](CCC(N)=O)NC(=O)[C@@H](Cc1ccccc1)NC(=O)COCC(=O)Nc1ccc(CNC(=O)CN2CCN(CC(=O)O)CCN(CC(=O)O)CCN(CC(=O)O)CC2)cc1)C(C)C` [[^111In]SB3, metal not drawn], the tissue uptake at 1 h in “in vivo” (200 pmol, pancreatic uptake) amounted to 4.1 ± 2.3 %ID/g; in the series “in vivo” (200 pmol, renal uptake), 3.9 ± 1.4 %ID/g; in the series “in vivo” (200 pmol, tumor uptake), 10.2 ± 1.5 %ID/g; in the series “in vivo” (pancreatic uptake) it was 10.1 ± 4.3 %ID/g; in the series “in vivo” (renal uptake) it was 4.5 ± 1.4 %ID/g; in the series “in vivo” (tumor uptake), 19.7 ± 3.5 %ID/g. Moreover, the tissue to tissue ratio at 1 h in the series “in vivo” (200 pmol, tumor to kidney ratio) came out at 2.8 ± 1; in the series “in vivo” (200 pmol, tumor to pancreas radioactivity ratio) it was 3.4 ± 2.5; in the series “in vivo” (tumor to kidney ratio), 4.8 ± 2.2; in the series “in vivo” (tumor to pancreas radioactivity ratio), 2.2 ± 0.8. Moreover, the tissue uptake at 4 h in “in vivo” (200 pmol, tumor uptake) was 8.3 ± 1.1 %ID/g; in “in vivo” (tumor uptake) it was 17.6 ± 5.1 %ID/g. Besides, the tissue uptake at 24 h in “in vivo” (200 pmol, tumor uptake) was 3.1 ± 1.9 %ID/g; in “in vivo” (tumor uptake), 6.5 ± 3.3 %ID/g. Further, the “uptake in the pancreas and the tumor with an excess of unlabeled SB3 (blocking)” value in series [1] is recorded as “significantly decreased”. For the same compound, the “tumor ROI signal intensity on SPECT” value is recorded as 2434 kBq/ml in series [2] (with 300 μg PA) and 1424 kBq/ml in series [2] (without PA). In addition, in series [2] (ROI analysis, 25 MBq/200 pmol), the “increase in tumor signal intensity with PA vs without PA” value was determined as 70%. The “intact radiotracer, % of remaining circulating activity in blood” value in series [3] (setting [6]) turned out to be 86.7 ± 1.5%; in series [3] (without PA, n = 3), 37.3 ± 2.5%. In addition, the “intact radiotracer in blood” value is 87.9 ± 1.1% in series [3] (setting [6]) and 42.0 ± 0.2% in series [3] (without PA, one animal excluded). The in vivo stability entry in series [4] is on record as “poor in vivo stability”.
For `CC(C)C[C@H](NP(=O)(O)O[C@@H]1O[C@@H](C)[C@H](O)[C@@H](O)[C@H]1O)C(=O)N[C@@H](Cc1c[nH]c2ccccc12)C(=O)O` [PA, phosphoramidon], the adverse events entry in series [5] is “have not indicated any adverse events”.
One may read the IC50 as the concentration that gives 50% inhibition. High values mean a need for much substance, low ones inhibition by little substance. Turning to `CCNC(=O)[C@H](CC(C)C)NC(=O)[C@H](Cc1c[nH]cn1)NC(=O)CNC(=O)[C@@H](NC(=O)[C@H](C)NC(=O)[C@H](Cc1c[nH]c2ccccc12)NC(=O)[C@H](CCC(N)=O)NC(=O)[C@@H](Cc1ccccc1)NC(=O)COCC(=O)Nc1ccc(CNC(=O)CN2CCN(CC(=O)O)CCN(CC(=O)O)CCN(CC(=O)O)CC2)cc1)C(C)C` [SB3, Sarabesin 3], at human GRPR, the half-inhibitory concentration (IC50) worked out at 3.5 nM.

Values taken from PMC6244536, “In Vivo Stabilized SB3, an Attractive GRPR Antagonist, for Pre- and Intra-Operative Imaging for Prostate Cancer” (Molecular Imaging and Biology, 2018).
